± gives the expanded uncertainty stated by the source.
Tests used:
[1] = refractive index (Na D-line) (dimensionless); details: 298.15 K; 101.33 kPa; Liquid; Standard Abbe refractometry
[2] = 298.15 K; 101.33 kPa; Liquid; Buoyancy - hydrostatic balance

| refractive index [1] | mass density [2] | SMILES |
| --- | --- | --- |
| 1.3452 ± 0.001 | 785.712 ± 10 kg/m3 | CC#N [acetonitrile] |
| 1.3975 ± 0.0011 | 805.881 ± 10 kg/m3 | CCCCO [butan-1-ol] |
| 1.3279 ± 0.0011 | 791.814 ± 10 kg/m3 | CO [methanol] |

The remaining lines, values behind:

| SMILES | refractive index [1] | mass density [2] |
| --- | --- | --- |
| CC(C)c1ccccc1 [isopropylbenzene] | 1.4907 ± 0.0011 | 864.115 ± 10 kg/m3 |
| CN(C)C=O [dimethylformamide] | 1.4279 ± 0.0011 | 944.689 ± 10 kg/m3 |
| CC(C)CO [2-methyl-1-propanol] | 1.394 ± 0.0011 | 801.652 ± 10 kg/m3 |
| O [water] | 1.3324 ± 0.001 | – |
| CC(=O)CC(C)C [4-methylpentan-2-one] | 1.3964 ± 0.0011 | 800.589 ± 10 kg/m3 |

— the NIST ThermoML archive (doi:10.1021/acs.jced.8b00120)
